# System: not listed separately
# Test: Selectivity for human recombinant TACE over ADAM10
row,Ratio Ki,Compound
1,4,Cc1cc(COc2cccc([C@@]3(C(=O)OC(C)C)C[C@H]3C(=O)NO)c2)c2ccccc2n1
2,10,COC(=O)[C@]1(c2cccc(OCc3ccc(Cl)c(Cl)c3)c2)C[C@H]1C(=O)NO
3,8,COC(=O)[C@]1(c2cccc(OCc3ccc(C(F)(F)F)cc3)c2)C[C@H]1C(=O)NO

# System: not listed separately
# Test: Selectivity for human recombinant TACE over MMP1
row,Ratio Ki,Compound
1,7400,Cc1cc(COc2cccc([C@@]3(C(=O)OC(C)C)C[C@H]3C(=O)NO)c2)c2ccccc2n1
2,6800,COC(=O)[C@]1(c2cccc(OCc3ccc(Cl)c(Cl)c3)c2)C[C@H]1C(=O)NO
3,1800,COC(=O)[C@]1(c2cccc(OCc3ccc(C(F)(F)F)cc3)c2)C[C@H]1C(=O)NO

# System: not listed separately
# Test: Selectivity for human recombinant TACE over MMP2
row,Ratio Ki,Compound
1,1400,Cc1cc(COc2cccc([C@@]3(C(=O)OC(C)C)C[C@H]3C(=O)NO)c2)c2ccccc2n1
2,2800,COC(=O)[C@]1(c2cccc(OCc3ccc(Cl)c(Cl)c3)c2)C[C@H]1C(=O)NO
3,> 600,COC(=O)[C@]1(c2cccc(OCc3ccc(C(F)(F)F)cc3)c2)C[C@H]1C(=O)NO

# Molecular target: Disintegrin and metalloproteinase domain-containing protein 17 (Homo sapiens, UniProt P78536)
# Sequence (P78536 whole entry, the tested form may be a part): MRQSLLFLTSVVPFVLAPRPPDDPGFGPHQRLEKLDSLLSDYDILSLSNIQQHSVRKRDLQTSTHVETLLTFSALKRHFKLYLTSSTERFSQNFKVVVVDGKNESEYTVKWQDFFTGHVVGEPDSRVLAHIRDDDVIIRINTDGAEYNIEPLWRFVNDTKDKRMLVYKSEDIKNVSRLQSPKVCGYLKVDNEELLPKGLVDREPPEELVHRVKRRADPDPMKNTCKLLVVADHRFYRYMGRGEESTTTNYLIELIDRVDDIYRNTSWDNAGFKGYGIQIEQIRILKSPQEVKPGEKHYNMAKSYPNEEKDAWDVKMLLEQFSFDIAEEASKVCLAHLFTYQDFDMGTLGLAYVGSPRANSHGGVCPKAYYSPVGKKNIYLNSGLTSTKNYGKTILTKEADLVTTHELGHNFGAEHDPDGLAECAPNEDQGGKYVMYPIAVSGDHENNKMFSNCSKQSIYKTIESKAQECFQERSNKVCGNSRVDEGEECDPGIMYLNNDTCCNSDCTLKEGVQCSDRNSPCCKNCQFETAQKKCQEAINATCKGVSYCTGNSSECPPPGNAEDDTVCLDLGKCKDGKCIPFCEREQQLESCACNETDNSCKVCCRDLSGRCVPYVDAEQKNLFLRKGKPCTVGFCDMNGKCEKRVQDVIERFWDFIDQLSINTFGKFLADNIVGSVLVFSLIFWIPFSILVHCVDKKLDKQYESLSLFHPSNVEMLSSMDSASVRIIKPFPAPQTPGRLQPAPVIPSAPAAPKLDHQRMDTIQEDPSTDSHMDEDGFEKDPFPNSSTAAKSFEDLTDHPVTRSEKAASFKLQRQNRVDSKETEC
# Description: Inhibition of human recombinant TACE
row,Compound,Ki [nM]
1,COC(=O)[C@]1(c2cccc(OCCc3ccc4ccccc4c3)c2)C[C@H]1C(=O)NO,60
2,COC(=O)[C@]1(c2cccc(OC)c2)C[C@H]1C(=O)NO,3000
3,COC(=O)[C@@]1(Cc2ccc(OCCc3ccc4ccccc4c3)cc2)C[C@@H]1C(=O)NO,> 100000
4,NC(=O)C1(c2cccc(OCc3ccccc3)c2)CC1C(=O)NO (stereo not given),1200
5,COC(=O)[C@@]1(Cc2ccc(OCCc3cccc4ccccc34)cc2)C[C@@H]1C(=O)NO,> 100000
6,COC(=O)[C@]1(c2cccc(OCc3ccc(Cl)c(Cl)c3)c2)C[C@H]1C(=O)NO,11
7,COC(=O)[C@]1(c2cccc(OCCc3ccccc3)c2)C[C@H]1C(=O)NO,290
8,COC(=O)[C@]1(c2cccc(Oc3ccccc3C)c2)C[C@H]1C(=O)NO,240
9,COC(=O)[C@@]1(Cc2ccc(OCc3ccc(Cl)c(Cl)c3)cc2)C[C@@H]1C(=O)NO,130
10,COC(=O)[C@]1(c2cccc(OCCc3cccc4ccccc34)c2)C[C@H]1C(=O)NO,50
11,COC(=O)C1(Cc2cccc(OCc3ccccc3)c2)CC1C(=O)NO (racemic),4000
12,COC(=O)[C@@]1(Cc2ccc(OCc3ccccc3Cl)cc2)C[C@@H]1C(=O)NO,260
13,COC(=O)C1(Cc2ccc(OCc3ccccc3)cc2)CC1C(=O)NO (racemic),800
14,CCOC(=O)[C@@]1(Cc2ccc(Oc3ccccc3)cc2)C[C@@H]1C(=O)NO,3100
15,COC(=O)[C@]1(c2cccc(OCc3ccc(Cl)cc3)c2)C[C@H]1C(=O)NO,50
16,NC(=O)C1(Cc2ccc(OCc3ccccc3)cc2)CC1C(=O)NO (racemic),360
17,CCOC(=O)C1(c2ccc(OCc3ccccc3)cc2)CC1C(=O)NO (racemic),20000
18,Cc1cc(COc2cccc([C@@]3(C(=O)N4CCN(C)CC4)C[C@H]3C(=O)NO)c2)c2ccccc2n1,5000
19,COC(=O)[C@]1(c2cccc(Oc3ccc4ccccc4c3)c2)C[C@H]1C(=O)NO,70
20,Cc1cc(COc2cccc([C@@]3(C(=O)NCc4ccccc4)C[C@H]3C(=O)NO)c2)c2ccccc2n1,140
21,Cc1cc(COc2cccc([C@@]3(C(=O)N(C)Cc4ccccc4)C[C@H]3C(=O)NO)c2)c2ccccc2n1,3000
22,COC(=O)[C@@]1(Cc2ccc(OCc3ccccc3)cc2)C[C@@H]1C(=O)NO (racemic),800
23,COC(=O)[C@@]1(Cc2ccc(OCC3CCCCC3)cc2)C[C@@H]1C(=O)NO,26000
24,COC(=O)[C@]1(c2cccc(Oc3ccc(C)cc3)c2)C[C@H]1C(=O)NO,140
25,Cc1cc(COc2cccc([C@@]3(C(=O)NC4CCCCC4)C[C@H]3C(=O)NO)c2)c2ccccc2n1,9
26,CC#CCOc1ccc(C[C@]2(C(N)=O)C[C@@H]2C(=O)NO)cc1,80
27,CC#CCOc1ccc(C[C@]2(C(=O)OC)C[C@@H]2C(=O)NO)cc1,420
28,CNC(=O)[C@]1(c2cccc(OCc3cc(C)nc4ccccc34)c2)C[C@H]1C(=O)NO,100
29,Cc1cc(COc2cccc([C@@]3(C(=O)Nc4ccccc4)C[C@H]3C(=O)NO)c2)c2ccccc2n1,11

# The remaining compounds from weak to strong by Ki, led by results:
row,Ki [nM],Compound
1,3000,COC(=O)[C@]1(c2cccc(OCc3ccc4ccccc4c3)c2)C[C@H]1C(=O)NO
2,2700,Cc1cc(COc2cccc([C@@]3(C(=O)N(C)C)C[C@H]3C(=O)NO)c2)c2ccccc2n1
3,1600,CC#CCOc1cccc([C@@]2(C(=O)OC)C[C@H]2C(=O)NO)c1
4,1100,COC(=O)[C@]1(c2cccc(Oc3ccccc3)c2)C[C@H]1C(=O)NO
5,900,COC(=O)[C@]1(c2cccc(OCC3CCCCC3)c2)C[C@H]1C(=O)NO
6,700,Cc1cc(COc2cccc([C@@]3(C(N)=O)C[C@H]3C(=O)NO)c2)c2ccccc2n1 (relative stereo)
7,500,COC(=O)C1(c2cccc(OCc3ccccc3)c2)CC1C(=O)NO (racemic)
8,110,COC(=O)[C@]1(c2cccc(OCc3cccc(OC)c3)c2)C[C@H]1C(=O)NO
9,80,COC(=O)[C@]1(c2cccc(OCc3cccc(F)c3)c2)C[C@H]1C(=O)NO
10,70,COC(=O)[C@]1(c2cccc(OCc3cccc(C(F)(F)F)c3)c2)C[C@H]1C(=O)NO
11,18,COC(=O)[C@]1(c2cccc(OCc3ccc(C(F)(F)F)cc3)c2)C[C@H]1C(=O)NO
12,16,CCOC(=O)[C@]1(c2cccc(OCc3cc(C)nc4ccccc34)c2)C[C@H]1C(=O)NO
13,14,CNC(=O)[C@@]1(Cc2ccc(OCc3cc(C)nc4ccccc34)cc2)C[C@@H]1C(=O)NO
14,8,Cc1cc(COc2cccc([C@@]3(C(=O)OC(C)C)C[C@H]3C(=O)NO)c2)c2ccccc2n1
15,1,Cc1cc(COc2ccc(C[C@]3(C(=O)N(C)C)C[C@@H]3C(=O)NO)cc2)c2ccccc2n1

# System: not listed separately
# Test: Selectivity for human recombinant TACE over MMP14
row,Ratio Ki,Compound
1,3000,Cc1cc(COc2cccc([C@@]3(C(=O)OC(C)C)C[C@H]3C(=O)NO)c2)c2ccccc2n1
2,2400,COC(=O)[C@]1(c2cccc(OCc3ccc(Cl)c(Cl)c3)c2)C[C@H]1C(=O)NO
3,4000,COC(=O)[C@]1(c2cccc(OCc3ccc(C(F)(F)F)cc3)c2)C[C@H]1C(=O)NO

# System: not listed separately
# Test: Selectivity for human recombinant TACE over MMP7
row,Ratio Ki,Compound
1,12400,Cc1cc(COc2cccc([C@@]3(C(=O)OC(C)C)C[C@H]3C(=O)NO)c2)c2ccccc2n1
2,5400,COC(=O)[C@]1(c2cccc(OCc3ccc(Cl)c(Cl)c3)c2)C[C@H]1C(=O)NO
3,> 600,COC(=O)[C@]1(c2cccc(OCc3ccc(C(F)(F)F)cc3)c2)C[C@H]1C(=O)NO

# System: not listed separately
# Test: Selectivity for human recombinant TACE over MMP3
row,Ratio Ki,Compound
1,1500,Cc1cc(COc2cccc([C@@]3(C(=O)OC(C)C)C[C@H]3C(=O)NO)c2)c2ccccc2n1
2,600,COC(=O)[C@]1(c2cccc(OCc3ccc(Cl)c(Cl)c3)c2)C[C@H]1C(=O)NO
3,200,COC(=O)[C@]1(c2cccc(OCc3ccc(C(F)(F)F)cc3)c2)C[C@H]1C(=O)NO

# System: not listed separately
# Test: Selectivity for human recombinant TACE over BMP1
row,Ratio Ki,Compound
1,800,Cc1cc(COc2cccc([C@@]3(C(=O)OC(C)C)C[C@H]3C(=O)NO)c2)c2ccccc2n1
2,400,COC(=O)[C@]1(c2cccc(OCc3ccc(Cl)c(Cl)c3)c2)C[C@H]1C(=O)NO
3,700,COC(=O)[C@]1(c2cccc(OCc3ccc(C(F)(F)F)cc3)c2)C[C@H]1C(=O)NO

# Reference: ChEMBL document CHEMBL1141652 (J Med Chem, 2008)
